Measurements published in ChEMBL document CHEMBL3526141, “Characterization of human liver enzymes involved in the biotransformation of boceprevir, a hepatitis C virus protease inhibitor” (Drug Metab Dispos, 2011).

How the values were obtained:
[1] = test system: Liver cytosol; test: Drug metabolism in human liver cytosol at 20 uM assessed as (1R,2S,5S)-N-((2S,3R)-4-amino-1-cyclobutyl-3-hydroxy-4-oxobutan-2-yl)-3-((S)-2-(3-tert-butylureido)-3,3-dimethylbutanoyl)-6,6-dimethyl-3-azabicyclo[3.1.0]hexane-2-carboxamide formation in presence of BNPP by LC-MS/MS/FSA method; type: ADME
[2] = test system: Liver cytosol; test: Drug metabolism in human liver cytosol treated with 20 uM [14C]boceprevir assessed as IC50 for AKR inhibitor diflunisal-mediated metabolite formation after 60 mins by LC-MS/MS/FSA method; type: ADME, tissue-based; details: 1 h
[3] = test system: Liver cytosol; test: Drug metabolism in human liver cytosol at 20 uM assessed as (1R,2S,5S)-N-((2R,3R)-4-amino-1-cyclobutyl-3-hydroxy-4-oxobutan-2-yl)-3-((S)-2-(3-tert-butylureido)-3,3-dimethylbutanoyl)-6,6-dimethyl-3-azabicyclo[3.1.0]hexane-2-carboxamide formation in presence of BNPP by LC-MS/MS/FSA method; type: ADME
[4] = test system: Liver cytosol; test: Drug metabolism in human liver cytosol treated with 20 uM [14C]boceprevir assessed as IC50 for AKR inhibitor ibuprofen-mediated metabolite formation after 60 mins by LC-MS/MS/FSA method; type: ADME, tissue-based; details: 1 h
[5] = molecular target: Cytochrome P450 2D6 (Homo sapiens, UniProt P10635); test: Drug metabolism assessed as human CYP2D6-mediated compound formation from 5 uM [14C]boceprevir after 120 mins by LC-MS/FSA method relative to total [14C]boceprevir; type: ADME; details: recombinant enzyme, 2 h
Cytochrome P450 2D6, sequence (P10635 whole entry): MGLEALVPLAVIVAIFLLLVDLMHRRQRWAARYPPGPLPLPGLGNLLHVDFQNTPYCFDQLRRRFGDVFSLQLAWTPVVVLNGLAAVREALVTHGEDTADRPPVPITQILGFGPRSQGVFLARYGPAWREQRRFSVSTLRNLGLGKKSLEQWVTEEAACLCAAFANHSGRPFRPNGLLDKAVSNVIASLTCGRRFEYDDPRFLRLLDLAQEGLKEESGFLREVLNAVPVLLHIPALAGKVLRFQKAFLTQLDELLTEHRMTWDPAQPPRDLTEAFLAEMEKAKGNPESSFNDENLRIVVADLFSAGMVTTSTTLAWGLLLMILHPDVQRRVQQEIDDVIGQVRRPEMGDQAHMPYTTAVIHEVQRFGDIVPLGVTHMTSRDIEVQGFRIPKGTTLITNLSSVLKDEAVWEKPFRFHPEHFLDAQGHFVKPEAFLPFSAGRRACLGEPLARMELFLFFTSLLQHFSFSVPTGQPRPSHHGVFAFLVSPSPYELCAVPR

[6] = molecular target: Cytochrome P450 3A5 (Homo sapiens, UniProt P20815); test: Drug metabolism assessed as human CYP3A5-mediated compound formation from 20 uM [14C]boceprevir after 120 mins by LC-MS/FSA method relative to total [14C]boceprevir; type: ADME; details: recombinant enzyme, 2 h
Cytochrome P450 3A5, sequence (P20815 whole entry): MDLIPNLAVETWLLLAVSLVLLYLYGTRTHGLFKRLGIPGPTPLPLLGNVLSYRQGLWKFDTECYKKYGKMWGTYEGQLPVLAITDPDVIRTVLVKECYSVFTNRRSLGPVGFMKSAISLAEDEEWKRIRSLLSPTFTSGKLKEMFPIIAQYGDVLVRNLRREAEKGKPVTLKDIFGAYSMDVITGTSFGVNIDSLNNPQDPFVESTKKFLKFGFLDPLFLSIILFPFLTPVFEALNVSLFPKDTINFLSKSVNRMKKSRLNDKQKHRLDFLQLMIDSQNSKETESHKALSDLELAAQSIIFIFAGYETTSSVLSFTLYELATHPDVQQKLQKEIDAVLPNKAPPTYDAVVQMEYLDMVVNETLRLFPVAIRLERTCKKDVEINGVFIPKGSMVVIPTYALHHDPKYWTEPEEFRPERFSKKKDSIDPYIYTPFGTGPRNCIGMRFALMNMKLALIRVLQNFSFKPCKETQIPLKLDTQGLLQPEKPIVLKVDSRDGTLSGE

[7] = molecular target: Cytochrome P450 2C19 (Homo sapiens, UniProt P33261); test: Drug metabolism assessed as human CYP2C19-mediated compound formation from 5 uM [14C]boceprevir after 120 mins by LC-MS/FSA method relative to total [14C]boceprevir; type: ADME; details: recombinant enzyme, 2 h
Cytochrome P450 2C19, sequence (P33261 whole entry): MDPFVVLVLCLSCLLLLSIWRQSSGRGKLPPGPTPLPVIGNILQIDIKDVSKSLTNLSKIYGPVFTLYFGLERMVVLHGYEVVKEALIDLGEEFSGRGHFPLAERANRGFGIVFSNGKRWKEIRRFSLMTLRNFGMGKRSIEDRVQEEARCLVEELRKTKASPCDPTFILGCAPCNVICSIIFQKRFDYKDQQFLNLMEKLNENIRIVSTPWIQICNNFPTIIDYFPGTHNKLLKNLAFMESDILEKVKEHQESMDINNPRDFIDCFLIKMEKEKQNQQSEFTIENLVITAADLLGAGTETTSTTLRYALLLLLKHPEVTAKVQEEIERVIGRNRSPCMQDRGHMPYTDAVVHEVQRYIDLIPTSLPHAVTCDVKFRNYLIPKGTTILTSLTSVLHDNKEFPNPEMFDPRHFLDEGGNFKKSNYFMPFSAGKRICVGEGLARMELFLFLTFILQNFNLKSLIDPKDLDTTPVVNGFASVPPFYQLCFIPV

[8] = molecular target: T1, Cytochrome P450 4F3 (Homo sapiens, UniProt Q08477); test: Drug metabolism assessed as human CYP4F3A-mediated compound formation from 5 uM [14C]boceprevir after 120 mins by LC-MS/FSA method relative to total [14C]boceprevir; type: ADME; details: recombinant enzyme, 2 h
T1 sequence (Q08477 whole entry): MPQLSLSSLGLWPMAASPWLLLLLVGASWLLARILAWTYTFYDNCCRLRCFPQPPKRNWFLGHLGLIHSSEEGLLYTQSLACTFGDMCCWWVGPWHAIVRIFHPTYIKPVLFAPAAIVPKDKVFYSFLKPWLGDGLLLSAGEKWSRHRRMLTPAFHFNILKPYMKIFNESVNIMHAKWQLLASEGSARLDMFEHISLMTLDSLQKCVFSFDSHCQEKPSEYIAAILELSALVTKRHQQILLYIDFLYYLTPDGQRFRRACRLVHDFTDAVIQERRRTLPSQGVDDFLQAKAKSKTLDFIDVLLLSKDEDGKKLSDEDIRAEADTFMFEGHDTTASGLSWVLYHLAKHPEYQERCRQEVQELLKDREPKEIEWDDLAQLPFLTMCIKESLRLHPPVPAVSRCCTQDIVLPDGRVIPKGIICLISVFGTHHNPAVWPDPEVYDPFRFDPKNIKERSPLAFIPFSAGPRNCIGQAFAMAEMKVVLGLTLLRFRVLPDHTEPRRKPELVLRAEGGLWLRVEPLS

[9] = test system: Plasma; test: Drug metabolism in human plasma treated with [14C]boceprevir assessed as ratio of drug level by LC-MS/MS method relative to boceprevir; type: ADME, cell-free
[10] = molecular target: Cytochrome P450 3A4 (Homo sapiens, UniProt P08684); test: Drug metabolism assessed as human CYP3A4-mediated compound formation from 20 uM [14C]boceprevir after 120 mins by LC-MS/FSA method relative to total [14C]boceprevir; type: ADME; details: recombinant enzyme, 2 h
Cytochrome P450 3A4, sequence (P08684 whole entry): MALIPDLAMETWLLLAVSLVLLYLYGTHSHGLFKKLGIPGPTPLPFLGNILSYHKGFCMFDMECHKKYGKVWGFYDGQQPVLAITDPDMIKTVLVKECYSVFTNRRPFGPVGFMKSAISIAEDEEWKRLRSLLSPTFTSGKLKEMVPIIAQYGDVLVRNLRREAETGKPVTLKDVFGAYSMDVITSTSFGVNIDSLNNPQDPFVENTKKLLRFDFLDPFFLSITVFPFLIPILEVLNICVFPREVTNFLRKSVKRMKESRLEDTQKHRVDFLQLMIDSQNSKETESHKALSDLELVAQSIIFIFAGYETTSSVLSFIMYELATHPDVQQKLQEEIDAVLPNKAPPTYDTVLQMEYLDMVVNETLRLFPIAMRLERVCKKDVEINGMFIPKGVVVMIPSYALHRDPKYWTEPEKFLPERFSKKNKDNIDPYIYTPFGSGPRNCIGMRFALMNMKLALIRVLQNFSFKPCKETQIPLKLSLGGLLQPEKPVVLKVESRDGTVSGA

[11] = Retention time of the compound by LC-MS/MS method; type: physicochemical
[12] = molecular target: T2, Cytochrome P450 2B6 (Homo sapiens, UniProt P20813); test: Drug metabolism assessed as human CYP2B6-mediated compound formation from 5 uM [14C]boceprevir after 120 mins by LC-MS/FSA method relative to total [14C]boceprevir; type: ADME; details: recombinant enzyme, 2 h
T2 sequence (P20813 whole entry): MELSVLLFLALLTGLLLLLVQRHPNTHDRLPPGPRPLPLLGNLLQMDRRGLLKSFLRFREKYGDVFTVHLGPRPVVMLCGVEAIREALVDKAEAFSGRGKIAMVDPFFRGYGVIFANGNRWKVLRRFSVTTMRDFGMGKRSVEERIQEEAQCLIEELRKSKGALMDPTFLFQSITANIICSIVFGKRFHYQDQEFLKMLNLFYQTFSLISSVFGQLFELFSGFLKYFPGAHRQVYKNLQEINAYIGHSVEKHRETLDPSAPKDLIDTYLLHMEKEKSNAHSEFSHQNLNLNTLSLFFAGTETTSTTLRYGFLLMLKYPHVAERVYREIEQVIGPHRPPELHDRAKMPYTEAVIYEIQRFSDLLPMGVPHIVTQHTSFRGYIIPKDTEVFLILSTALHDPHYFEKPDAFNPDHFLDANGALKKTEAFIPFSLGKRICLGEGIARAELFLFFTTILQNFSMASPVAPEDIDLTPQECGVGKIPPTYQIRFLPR

[13] = test system: Liver microsome; test: Drug metabolism in human liver microsomes treated with 20 uM [14C]boceprevir assessed as compound formation by LC-MS/FSA method relative to total [14C]boceprevir; type: ADME
[14] = molecular target: T3, Cytochrome P450 1A2 (Homo sapiens, UniProt P05177); test: Drug metabolism assessed as human […]-mediated compound formation from 5 uM [14C]boceprevir after 120 mins by LC-MS/FSA method relative to total [14C]boceprevir; type: ADME; details: recombinant enzyme, 2 h
T3 sequence (P05177 whole entry): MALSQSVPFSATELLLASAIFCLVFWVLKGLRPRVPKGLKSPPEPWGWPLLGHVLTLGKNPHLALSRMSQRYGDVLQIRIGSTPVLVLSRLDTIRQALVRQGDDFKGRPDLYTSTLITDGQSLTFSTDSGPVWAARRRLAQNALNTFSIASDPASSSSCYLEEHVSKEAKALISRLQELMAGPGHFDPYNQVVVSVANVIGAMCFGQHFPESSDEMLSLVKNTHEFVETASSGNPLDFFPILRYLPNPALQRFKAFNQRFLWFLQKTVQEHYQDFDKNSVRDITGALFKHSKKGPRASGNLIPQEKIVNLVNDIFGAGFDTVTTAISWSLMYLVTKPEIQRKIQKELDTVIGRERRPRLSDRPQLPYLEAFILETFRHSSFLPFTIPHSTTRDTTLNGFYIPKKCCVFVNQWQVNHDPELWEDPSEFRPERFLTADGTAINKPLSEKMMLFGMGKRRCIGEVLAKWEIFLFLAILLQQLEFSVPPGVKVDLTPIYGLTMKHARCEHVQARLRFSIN

| Compound recovery [1] | IC50 [2] | Compound recovery [3] | IC50 [4] | Compound recovery [5] | Compound recovery ([6]; BLD = below limit of detection) | Compound recovery [7] | Compound recovery [8] | Compound recovery [9] | Compound recovery ([10]; BLD = below limit of detection) | Retention_time [11] | Compound recovery [12] | Compound recovery [13] | Compound recovery [14] | Compound recovery [6] | Compound recovery [10] | Compound |
| --- | --- | --- | --- | --- | --- | --- | --- | --- | --- | --- | --- | --- | --- | --- | --- | --- |
| metabolite_not_detected | 4.58 µM | metabolite_not_detected | 412 µM | – | – | – | – | – | – | – | – | – | – | – | – | CC(C)(C)NC(=O)N[C@H](C(=O)N1C[C@H]2[C@@H]([C@H]1C(=O)NC(CC1CCC1)C(=O)C(N)=O)C2(C)C)C(C)(C)C (stereo partly drawn) [BOCEPREVIR] |
| – | 4.58 µM | – | 412 µM | 0.56% | BLD | 0.38% | 1.78% | >= 50% | BLD | 40.1 min | 0.9% | 0.6% | 0.34% | – | – | CC(C)(C)NC(=O)N[C@H](C(=O)N1C[C@H]2[C@@H]([C@H]1C(=O)N[C@@H](CC1CCC1)[C@@H](O)C(N)=O)C2(C)C)C(C)(C)C |
| metabolite_not_detected | – | metabolite_not_detected | – | 31.66% | – | 30.71% | 34.35% | >= 50% | – | 44.6 min | 33.77% | 17.42% | 31.72% | 19.67% | 18.98% | CC(C)(C)NC(=O)N[C@H](C(=O)N1C[C@H]2[C@@H]([C@H]1C(=O)N[C@H](CC1CCC1)C(=O)C(N)=O)C2(C)C)C(C)(C)C |
